≈ marks a conversion by molar mass, not a printed value.
Experiments:
[1] = Measurement of solubility in physiological saline; assay type: physicochemical; settings: stirred 2 hours, filtered, HPLC
Method: The solubility of exemplary compounds of the present invention was measured.
The measurement was carried out using an internal standard method, and a 4-point calibration curve (4000 μM, 1000 μM, 250 μM, and 31.3 μM, or 1000 μM, 250 μM, 62.5 μM, and 7.8 μM) was prepared. A sample solution (100% DMSO) was lyophilized, and each solution was added. Then, the mixture was stirred for 2 hours, and the sample dissolved in the solution was filtered. Thereafter, the filtrate was measured by HPLC (HPLC). Physiological saline was used as a solution. Note that among the test compounds used, comparative compound 1 was the compound of Example 3-26 described in International publication No. WO06/090743 (phosphoric acid dibenzyl ester(R)-2-oxo-3-[1-oxo-3-(2-trifluoromethylphenyl)-1,2-dihydroisoquinolin-7-yl]-oxazolidin-5-ylmethyl ester). Further, the optical isomer of comparative compound 1, i.e., phosphoric acid dibenzyl ester(S)-2-oxo-3-[1-oxo-3-(2-trifluoromethylphenyl)-1,2-dihydroisoquinolin-7-yl]-oxazolidin-5-ylmethyl ester, was used as comparative compound 2. An active substance of the compound of the present invention, i.e., 7-((S)-5-hydroxymethyl-2-oxooxazolidin-3-yl)-3-(2-trifluoromethylphenyl)-2H-isoquinolin-1-one, was used as comparative compound 3. Another active substance of the compound of the present invention, i.e., 7-((R)-5-hydroxymethyl-2-oxooxazolidin-3-yl)-3-(2-trifluoromethylphenyl)-2H-isoquinolin-1-one, was used as comparative compound 4.

[2] = Measurement of conversion rate in human plasma; assay type: in vitro ADME; settings: 37° C., 50 μM
Method: The conversion rate of exemplary compounds of the present invention in human plasma was measured. The measurement of conversion rate in human plasma was conducted using human plasma purchased from Rockland Immunochemicals, Inc. (Pennsylvania, the United States of America). Each compound was incubated at 37° C. for 6 hours in plasma at a concentration of 50 μM, subjected to deproteinization treatment, and then quantified by HPLC using an internal standard method. The conversion rate was calculated as a residual rate after 6 hours. Comparative compounds 1 and 2 described above were also tested as test compounds.

[3] = test system: human colon cancer cell line HCT116; test: Measurement of antitumor effect in HCT116 tumor-bearing nude mice; assay type: in vivo, BALB/c nude mouse; settings: tail vein, administered twice (day 0 and day 7), HCT116 subcutaneous xenograft, vs control group 14 days after start
Method: The antitumor effect of exemplary compounds of the present invention was measured.
The antitumor effect was determined using tumor-bearing mice prepared by subcutaneously implanting a human colon cancer cell line HCT116 obtained from American Type Culture Collection (Virginia, the United States of America) into flank of each BALB/c nude mouse purchased from Charles River, Japan. The purchased nude mice were quarantined for 1 week, and thereafter about 5×10^6 HCT116 cells were subcutaneously implanted into flank of each mouse. The mice were subjected to the experiment at the time when their tumor grew to a size of about 200 mm^3.
Each compound was dissolved in an administration solution, and the solution was administered to the tail vein at 0.1 mL per 10 g of body weight of each mouse. Administration was carried out twice in total; on the initiation day of administration and 7 days after the initiation day. The antitumor effect was calculated as tumor growth inhibition by comparing with tumor growth in the administration solution-administered control group 14 days after the initiation day of administration.

[4] = saline or isotonic, thermodynamic from solid

solubility at 2 h [1, 4] | SMILES | Residual rate (after 6 hrs., %) [2] | further results
< 7.8 µM | O=C1O[C@@H](COP(=O)(OCc2ccccc2)OCc2ccccc2)CN1c1ccc2cc(-c3ccccc3C(F)(F)F)[nH]c(=O)c2c1 [Comparative compound 1, phosphoric acid dibenzyl ester(R)-2-oxo-3-[1-oxo-3-(2-trifluoromethylphenyl)-1,2-dihydroisoquinolin-7-yl]-oxazolidin-5-ylmethyl ester, reference compound] | 99.5% | remained in human plasma after 6 hours (in words) [2]: almost all
< 7.8 µM | O=C1O[C@H](COP(=O)(OCc2ccccc2)OCc2ccccc2)CN1c1ccc2cc(-c3ccccc3C(F)(F)F)[nH]c(=O)c2c1 [Comparative compound 2, phosphoric acid dibenzyl ester(S)-2-oxo-3-[1-oxo-3-(2-trifluoromethylphenyl)-1,2-dihydroisoquinolin-7-yl]-oxazolidin-5-ylmethyl ester, reference compound] | 95.5% | 
179 µM (≈ 72.4 µg/mL) | O=C1O[C@H](CO)CN1c1ccc2cc(-c3ccccc3C(F)(F)F)[nH]c(=O)c2c1 [Comparative compound 3, 7-((S)-5-hydroxymethyl-2-oxooxazolidin-3-yl)-3-(2-trifluoromethylphenyl)-2H-isoquinolin-1-one] |  | 
193 µM (≈ 78 µg/mL) | O=C1O[C@@H](CO)CN1c1ccc2cc(-c3ccccc3C(F)(F)F)[nH]c(=O)c2c1 [Comparative compound 4, 7-((R)-5-hydroxymethyl-2-oxooxazolidin-3-yl)-3-(2-trifluoromethylphenyl)-2H-isoquinolin-1-one] |  | 
 | O=C1O[C@H](COP(=O)([O-])[O-])CN1c1ccc2cc(-c3ccccc3C(F)(F)F)[nH]c(=O)c2c1.[Na+].[Na+] [Example 2, Mono-{(S)-2-oxo-3-[1-oxo-3-(2-trifluoromethyl-phenyl)-1,2-dihydro-isoquinolin-7-yl]-oxazolidin-5-ylmethyl}-disodium phosphate] | 29.4% | solubility at 2 h [1]: 3527 µM; remained in human plasma after 6 hours (in words) [2]: almost all; TGI on day 14 (%) ([3]; 60 mg/kg): 85%
 | O=C1O[C@@H](COP(=O)(O)O)CN1c1ccc2cc(-c3ccccc3C(F)(F)F)[nH]c(=O)c2c1 [Example 7, Mono-{(R)-2-oxo-3-[1-oxo-3-(2-trifluoromethyl-phenyl)-1,2-dihydro-isoquinolin-7-yl]-oxazolidin-5-ylmethyl}-disodium phosphate] | 33.4% | TGI on day 14 (%) ([3]; 80 mg/kg): 30%

SMILES | solubility at 2 h [1, 4] | Residual rate (after 6 hrs., %) [2] | further results
O=C1O[C@H](COP(=O)(O)O)CN1c1ccc2cc(-c3ccccc3C(F)(F)F)[nH]c(=O)c2c1 [Example 1, Mono-{(S)-2-oxo-3-[1-oxo-3-(2-trifluoromethyl-phenyl)-1,2-dihydro-isoquinolin-7-yl]-oxazolidin-5-ylmethyl}-phosphoric acid] | 3530 µM (≈ 1710 µg/mL) | 35.4% | 
O=C1O[C@@H](COP(=O)(O)O)CN1c1ccc2cc(-c3ccccc3C(F)(F)F)[nH]c(=O)c2c1 [Example 6, Mono-{(R)-2-oxo-3-[1-oxo-3-(2-trifluoromethyl-phenyl)-1,2-dihydro-isoquinolin-7-yl]-oxazolidin-5-ylmethyl}-phosphoric acid] | > 4000 µM |  | 

Source: patent US8420668B2, “1-(2H)-isoquinolone derivative” (Chugai Seiyaku Kabushiki Kaisha, priority 2008, dated 2013)
